Results from paper PMC7530112 (European journal of medicinal chemistry, 2020).

Test system: HIV-1NL4-3
Assay: Anti-HIV-1 assay in TZM-GFP cells
Conditions: for Inhibition% at 20 μM: 20 μM compound; for Inhibition% at 2 μM: 2 μM compound; for fold higher antiviral potency than PF74: EC50 compared with PF74

## 2-(2-(2,4-Dioxo-1,3-diazaspiro[4.5]decan-3-yl)acetamido)-N,3-diphenylpropanamide [Compound 45]
  Inhibition% at 20 μM: −/0%

## 2-(2-(2,4-Dioxo-1,3-diazaspiro[4.5]decan-3-yl)acetamido)-N-(3-fluorophenyl)-N-methyl-3-phenylpropanamide [Compound 49]
  Inhibition% at 2 μM: 24%
  Inhibition% at 20 μM: 98%

## 2-(2-(2,4-Dioxo-1,3-diazaspiro[4.5]decan-3-yl)acetamido)-N-ethyl-N,3-diphenylpropanamide [Compound 53]
  Inhibition% at 20 μM: −/92%

## 2-(2-(2,4-Dioxo-1,3-diazaspiro[4.5]decan-3-yl)acetamido)-N-methyl-N,3-diphenylpropanamide [Compound 44]
  Inhibition% at 20 μM: −/89%

## 2-(2-(2,5-Dioxo-3’,4’-dihydro-2’H-spiro[imidazolidine-4,1’-naphthalen]-1-yl)acetamido)-N,3-diphenylpropanamide [Compound 55]
  Inhibition% at 20 μM: −/22%

## 2-(2-(2,5-Dioxo-3’,4’-dihydro-2’H-spiro[imidazolidine-4,1’-naphthalen]-1-yl)acetamido)-N-(4-methoxyphenyl)-N-methyl-3-phenylpropanamide [Compound 56]
  Inhibition% at 20 μM: −/20%

## 2-(2-(2,5-Dioxo-3’,4’-dihydro-2’H-spiro[imidazolidine-4,1’-naphthalen]-1-yl)acetamido)-N-methyl-3-phenyl-N-(p-tolyl)propanamide [Compound 57]
  Inhibition% at 20 μM: −/41%

## 2-(2-(2,5-Dioxo-3’,4’-dihydro-2’H-spiro[imidazolidine-4,1’-naphthalen]-1-yl)acetamido)-N-methyl-N,3-diphenylpropanamide [Compound 54]
  Inhibition% at 20 μM: −/32%

## (2S)-N-(3-Fluorophenyl)-N-methyl-2-(2-(7-methyl-2-oxoindolin-3-yl)acetamido)-3-phenylpropanamide [Compound 19]
  Inhibition% at 2 μM: 0%
  Inhibition% at 20 μM: 93%

## (2S)-N-(4-Chlorophenyl)-N-methyl-2-(2-(7-methyl-2-oxoindolin-3-yl)acetamido)-3-phenylpropanamide [Compound 17]
  Inhibition% at 2 μM: 17%
  Inhibition% at 20 μM: 96%

## (S)-2-(2-(1,3-Dimethyl-2,6-dioxo-1,2,3,6-tetrahydro-7H-purin-7-yl)acetamido)-N-(3-fluorophenyl)-N-methyl-3-phenylpropanamide [Compound 40]
  Inhibition% at 2 μM: 1%
  Inhibition% at 20 μM: 67%

## (S)-2-(2-(1,3-Dimethyl-2,6-dioxo-1,2,3,6-tetrahydro-7H-purin-7-yl)acetamido)-N-(4-fluorophenyl)-N-methyl-3-phenylpropanamide [Compound 39]
  Inhibition% at 2 μM: 14%
  Inhibition% at 20 μM: 85%

## (S)-2-(2-(1,3-Dimethyl-2,6-dioxo-1,2,3,6-tetrahydro-7H-purin-7-yl)acetamido)-N-ethyl-N,3-diphenylpropanamide [Compound 43]
  Inhibition% at 2 μM: 0%
  Inhibition% at 20 μM: 94%

## (S)-2-(2-(1,3-Dimethyl-2,6-dioxo-1,2,3,6-tetrahydro-7H-purin-7-yl)acetamido)-N-methyl-3-phenyl-N-(p-tolyl)propanamide [Compound 38]
  Inhibition% at 2 μM: 18%
  Inhibition% at 20 μM: 98%

## (S)-2-(2-(5-Hydroxy-1H-indol-3-yl)acetamido)-N-methyl-3-phenyl-N-(p-tolyl)propanamide [Compound 9]
  fold higher antiviral potency than PF74: up to 20 fold

## (S)-2-(2-(5-Hydroxy-1H-indol-3-yl)acetamido)-N-methyl-N,3-diphenylpropanamide [Compound 8]
  fold higher antiviral potency than PF74: up to 20 fold

## (S)-N-(3-Chlorophenyl)-2-(2-(1,3-dimethyl-2,6-dioxo-1,2,3,6-tetrahydro-7H-purin-7-yl)acetamido)-N-methyl-3-phenylpropanamide [Compound 42]
  Inhibition% at 2 μM: 0%
  Inhibition% at 20 μM: 71%
